Results on one sequence are retold here after US11352400B2, “PI3K gamma inhibitor peptide for treatment of respiratory system diseases” (Kither Biotech S.r.I., priority 2014, dated 2022).

One test has as its system ΔF508-CFTR. Briefly: Chloride currents in Ussing chamber, CuFi-1 cells. As to conditions: CuFi-1 cells corrected with VX-809 (20 μM, 24 hours); peptide 10 μM in the presence of VX-770 10 μM. The test is classed as cell-based, human. On the procedure:
Human airway epithelial cell lines expressing a wild-type CFTR (NuLi-1) or with the ΔF508 mutation (CuFi-1) were purchased from ATCC (NuLi-1 product code: ATCC® CRL-4011™; CuFi-1 product code: ATCC® CRL-4013™). Cells were cultured in Dulbecco's Modified Eagle Medium (DMEM, Gibco, Carlsbad, Calif.) supplemented with 10% fetal bovine serum (FBS), 30 μg/mL of penicillin, 100 μg/mL of streptomycin and 300 μg/mL hygromycin B (Gibco, Carlsbad, Calif.).
To measure chloride currents in normal and ΔF508 primary human bronchial epithelial cells, cells were cultured on 1.12 cm^2 Snapwell inserts. Filters were mounted in Ussing chambers, and a chloride gradient was applied by incubating the cells in a basolateral high-chloride buffer containing (in mmol/L): 140 NaCl, 5 KCl, 0.36 K2HPO4, 0.44 KH2PO4, 1.3 CaCl2, 0.5 MgCl2, 4.2 NaHCO3, 10 HEPES, and 10 glucose, at pH 7.4 and an apical low-chloride buffer containing (in mmol/L): 133.3 Na-gluconate, 5 K-gluconate, 2.5 NaCl, 0.36 K2HPO4, 0.44 KH2PO4, 5.7 CaCl2, 0.5 MgCl2, 4.2 NaHCO3, 10 HEPES, and 10 mannitol, at pH 7.4. Buffers were aerated with a mixture of 95% O2 and 5% CO2 and the temperature was maintained at 37° C. during the experiment. […] After a stabilization period of 30 minutes, drugs were added at specific times, while the current was continuously recorded.

In test [1] the test system is lung inflammation in mice sensitized with ovalbumin. Briefly: Analysis of airway inflammation in asthmatic mice. The note with it: OVA-sensitized mice, vs P1. The test is classed as in vivo, BALB/C mice. The method, then:
Ovalbumin (100 μg) (OVA, Sigma-Aldrich, St. Louis, Mo.), complexed with aluminum potassium sulfate (1 mg, alum) was administered intraperitoneally (i.p.) on days 1 and 14, and intra-nasally (i.n.) (50 μg OVA in 50 μl PBS) on days 14, 25, 26, and 27. Control mice received i.p. injections of alum and i.n. injections of PBS only. Airway hyperreactivity induced by inhaled methacholine was measured at 24 hours after the final dose of OVA (Day 28).
Wild-type BALB/C mice were treated, by intra-tracheal instillation, with 25 μg of the Trojan peptide derived from PI3Kγ or equimolar amounts of P1 control peptide, in a final volume of 70 μL of phosphate-buffered saline (PBS), before each intranasal administration of ovalbumin (days 14, 25, 26, and 27 of the protocol of immunization with ovalbumin). At 24 hours after the final injection (day 28), mice were anesthetized (sodium pentobarbital, 70-90 mg/kg, i.p.) and the tracheas incised and cannulated. The airways were washed with 2.5 ml of phosphate-buffered saline solution (PBS). The total number of cells in the bronchoalveolar lavage (BAL) was determined with a Neubauer hemocytometer. A volume of 50 μL of BAL was centrifuged onto cytospin glass slides at 400 rpm at room temperature for 5 minutes and stained with a Diff-Quick system (LabAids, Ronkonkoma, USA). A total of 100 cells per slide were counted and classified as neutrophils, macrophages, lymphocytes and eosinophils on the basis of morphological criteria. Erythrocytes and epithelial cells were ignored and the results were expressed as cells/ml.
To assess the peribronchial inflammation, the lungs of a group of animals that had not been subjected to bronchoalveolar lavage were explanted, fixed in a solution of 4% paraformaldehyde (PFA) for 24 hours at 4° C. and embedded in paraffin. Slices that were 5 μm-thick, deparaffinized, stained with a hematoxylin-eosin solution (Bio-Optica, Milano, Italy), dehydrated and mounted with glass coverslips. The extent of peribronchial inflammation was classified as follows: 0—normal; 1—few inflammatory cells; 3—a thick ring of inflammatory cells.
To evaluate the presence of goblet cells, lung slices were stained with periodic acid-Schiff's reagent (PAS) (Bio-Optica, Milano, Italy) and the percentage of PAS-positive cells was calculated by counting the number of PAS-positive epithelial cells and total epithelial cells.

Setting [2] is: 25 μg/mouse intra-tracheal before each intranasal OVA.

As for “RQIKIWFQNRRMKWKKGKATHRSPGQIHLVQRHPPSEESQAF (fusion peptide comprising SEQ ID No.1 and SEQ ID No.3) [Trojan peptide derived from PI3Kγ]”, the “increase of the CFTR currents over basal activity” value with ΔF508-CFTR is “about 5 fold”. Further, in test [1] (setting [2]), the “number of goblet cells (PAS-positive)” value is listed as “significantly reduced”, the “number of neutrophils in the bronchoalveolar lavage” value is given as “significantly lower” and the peribronchial inflammatory infiltrate entry is “significantly reduced”. Also, in test [1] (25 μg/mouse), the “eosinophils in the bronchoalveolar lavage” value was “unchanged”, the “lymphocytes in the bronchoalveolar lavage” value was “unchanged” and the “macrophages in the bronchoalveolar lavage” value is on record as “unchanged”.
